Here are results for 1 compound from paper PMC6383986, “Fragment-Based Covalent Ligand Screening Enables Rapid Discovery of Inhibitors for the RBR E3 Ubiquitin Ligase HOIP” (Journal of the American Chemical Society, 2019).

The experiment deals with NF-κB activation in HEK293T cells overexpressing full length HOIP, HOIL-1L, and SHARPIN. The experiment can be described thus: NF-κB Luciferase reporter assay. To be noted: Homo sapiens, HEK-293T; overnight (17 h) treatment; estimated; read-out: IC50, inhibition of NF-κB activation. Format: cell-based. As to the method:
suspensions were agitated at 4 °C overnight. The supernatants were removed and kept on ice, and the beads were washed with wash buffer (2 × 0.5 mL), PBS (2 × 0.5 mL), and 50 mM HEPES, 150 mM NaCl, pH 7.5 buffer (2 × 0.5 mL).
A polyubiquitination assay master mix was prepared by mixing E1, UbcH7, ubiquitin, MgCl2, in buffer (50 mM HEPES, 150 mM NaCl, pH 7.5). The solution (30 µL per sample) was added to the beads, and lastly ATP (0.6 µL of 100 mM stock) was added to initiate the reaction. Final concentrations were E1 (0.2 µM), UbcH7 E2 (1 µM), ubiquitin (10 µM), MgCl2 (4 mM), ATP (2 mM). The vials were incubated (Eppendorf Thermomixer) at 25 °C, 900 rpm for 1.5 h. […] All samples were analyzed by SDS PAGE and Western Blot (Figure 6C and Supplementary Figure S13) as described in sections 4.5 and 4.6. […]
Reporter assays: After incubating the plates for 17 h, Firefly and Renilla Luciferase activity was analyzed using the Dual-Luciferase® Reporter Assay System (Promega) and a BertholdTech […]
with Mikrowin 2000 software version 4.41: using its injectors to inject 100 µL LAR II and 100 µL Stop&Glo (see manufacturer’s instructions; Promega #E1960). NF-κB regulated luciferase activity was first normalized to Renilla luciferase activity and then the fold activation relative to cells transfected with empty vector calculated. […]
reader. […]

`COC(=O)/C=C/CNC(=O)c1cc2c([nH]c1=O)CCCC2` [Compound 11a]: the IC50 was 37 ± 4 µM.

The term IC50 denotes the concentration at which inhibition is half-maximal.
